Experimental findings from PMC7412250, “Novel Chrysin-De-Allyl PAC-1 Hybrid Analogues as Anticancer Compounds: Design, Synthesis, and Biological Evaluation” (Molecules, 2020) are described below.

The test system of assay [1] is MDA-MB-231 cells. In words: Morphological observation of cells. The note with it: 20 µM. The assay is classed as cell-based, human. The protocol: Figure 3 Effects of 4g and 4i on cellular morphology, mitochondrial membrane potential, and cell cycle (A) Morphological observations of MDA-MB-231 cells incubated with 0, 5, and 20 µM concentrations of 4g and 4i at different time intervals of 0, 24, 48, and 72 h, respectively; (B) The MDA-MB-231 cells in complete medium were incubated with 4g and 4i at 0, 5, or 10 µM for 24 h. Cells were then incubated with the reagents of the MitoTracker Red and Alexa Fluor 488 annexin V kits for flow cytometry. Representative results of MDA-MB-231 cells from two independent experiments, each performed in triplicate, are shown; (C) Histograms quantitatively summarize the results following incubation with 4g and 4i, respectively; (D) The induction of cell cycle arrest in MDA-MB-231 cells by 4g and 4i is shown. The MDA-MB-231 cells were incubated with different concentrations (0, 5, and 10 µM) of 4g and 4i for 24 h and were subjected to cell cycle analysis by flow cytometry of PI (X axis)/cell counts (Y axis); (E) A histogram quantitatively summarizing the change in % of cells in each phase of the cell cycle due to incubation with 4g and 4i. The data represents means ± SEM of three independent experiments performed in triplicate with **** p < 0.0001 vs. control group. […]

Assay [2] deals with MDA-MB-231 cells. In words: MTT cytotoxicity assay, MDA-MB-231. Format: cell-based, human. The note with it: Homo sapiens; MDA-MB-231, MTT, mean ± SD of two independent experiments in triplicate; read-out: IC50 (cell survival). The protocol:
The synthesized chrysin derivatives were evaluated for cytotoxic efficacy in the human breast cancer cell line, MDA-MB-231, using the 3-(4,5-dimethylthiazol-2yl)-2,5-diphenyltetrazolium bromide (MTT) colorimetric assay and doxorubicin was used as a reference anticancer drug.
A panel of cancer cell lines, including breast (MDA-MB-231, BT20), brain (U251), and colon (HCT116), as well as a normal cell line (human mammary epithelial cells: HMECs), were grown as adherent monolayers in flasks with Dulbecco’s Modified Eagle Medium (DMEM), supplemented with 10% fetal bovine serum (FBS) and 1% penicillin and streptomycin in a humidified incubator with 5% CO2 at 37 °C.
The (3-(4,5-dimethylthiazol-2-yl)-2,5-diphenyltetrazolium bromide) (MTT) assay was used to determine the cytotoxicity of the 15 chrysin derivatives in the above-mentioned cell lines. Briefly, cells were harvested with 0.05% trypsin, 2.21 mM ethylenediaminetetraacetic acid (EDTA), 1× from Corning (Corning, NY, USA), and suspended at a final density of 5 × 10^3 cells/well. Cells were seeded (180 μL/well) into 96-well plates. Initially, four different concentrations of each compound were added to find the compounds with the greatest antiproliferative efficacy in the MDA-MB-231 cell line (0, 1, 10, and 100 μM). Subsequently, […] different concentrations […] of each compound were added to the remaining cell lines mentioned above. After 68 h of incubation, 20 μL of the MTT solution (4 mg/mL) were added to each well, and the plates were incubated for 4 h. This allowed viable cells to biotransform the yellow-colored MTT into dark-blue formazan crystals. Subsequently, the medium was discarded, and 150 μL of DMSO were added to each well to dissolve the formazan crystals. The absorbance was determined at 590 nm using a DTX 880 multimode detector (Beckman Coulter life sciences, IN, USA). […] The IC50 values were calculated from the cell survival percentages obtained for each compound tested at different concentrations. Similarly, the cytotoxicity of the test compounds was compared to the normal cell line (HMEC).

Regarding `O=C(COc1cc(O)c2c(=O)cc(-c3ccccc3)oc2c1)N/N=C/c1ccc(O)cc1O` [Compound 4g, (E,Z)-N’-(2,4-Dihydroxybenzylidene)-2-((5-hydroxy-4-oxo-2-phenyl-4H-chromen-7-yl)oxy)acetohydrazide], the cellular morphology entry in the assay on MDA-MB-231 cells [1] is “decreased the number of adherent MDA-MB-231 cells and induced cellular shrinkage”. In addition, the IC50 with MDA-MB-231 cells [2] was 5.98 ± 2.25 µM.

With `O=C(COc1cc(O)c2c(=O)cc(-c3ccccc3)oc2c1)N/N=C/c1ccc(O)c(O)c1O` [Compound 4i, (E,Z)-2-((5-Hydroxy-4-oxo-2-phenyl-4H-chromen-7-yl)oxy)-N’-(2,3,4-trihydroxybenzylidene)acetohydrazide], in the assay on MDA-MB-231 cells [1], the cellular morphology entry was “decreased the number of adherent MDA-MB-231 cells and induced cellular shrinkage”. Also, the IC50 with MDA-MB-231 cells [2] turned out to be 9.4 ± 1.45 µM.
